These results are taken from US9765075B2, “Substituted bridged urea analogs as sirtuin modulators” (GLAXOSMITHKLINE LLC, priority 2013, dated 2017).

Each structure is given as a SMILES string. Numbering of substitutions follows the chain as printed.

Holding throughout (test): SIRT1 activation dose-response, OAcADPr assay with Ac-p53(W5) substrate
Holding throughout (type): biochemical

For one series, the target named is T1, full-length hSIRT1 E230Q (Homo sapiens, UniProt Q96EB6, E230Q).
T1 construct: His6 (C); made in house
T1 sequence (Q96EB6 1-747 E230Q): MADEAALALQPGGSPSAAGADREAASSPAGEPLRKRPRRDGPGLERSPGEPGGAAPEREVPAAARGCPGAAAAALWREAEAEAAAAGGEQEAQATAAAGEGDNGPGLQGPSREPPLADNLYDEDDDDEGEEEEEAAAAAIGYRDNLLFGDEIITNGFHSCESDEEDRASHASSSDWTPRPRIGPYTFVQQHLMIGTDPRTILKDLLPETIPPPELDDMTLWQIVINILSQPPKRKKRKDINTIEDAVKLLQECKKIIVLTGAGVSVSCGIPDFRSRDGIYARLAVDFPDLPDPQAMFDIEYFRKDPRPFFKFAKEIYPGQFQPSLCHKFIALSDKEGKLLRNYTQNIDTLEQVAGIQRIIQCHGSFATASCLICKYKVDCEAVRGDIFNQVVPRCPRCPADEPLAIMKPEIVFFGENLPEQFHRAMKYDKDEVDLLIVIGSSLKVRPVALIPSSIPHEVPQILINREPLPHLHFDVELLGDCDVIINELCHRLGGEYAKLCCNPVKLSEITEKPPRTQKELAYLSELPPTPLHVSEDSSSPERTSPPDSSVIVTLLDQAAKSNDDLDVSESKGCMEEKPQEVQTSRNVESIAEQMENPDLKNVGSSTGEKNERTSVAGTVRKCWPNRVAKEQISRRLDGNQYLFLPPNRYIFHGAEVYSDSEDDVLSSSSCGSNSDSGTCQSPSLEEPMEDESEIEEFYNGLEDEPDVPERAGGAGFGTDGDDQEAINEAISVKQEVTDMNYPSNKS
The following applies: for EC50: hSIRT1 E230Q, activation dose-response, Ac-p53(W5) substrate.

A further series concerns the target T2, full-length hSIRT1 N226A (Homo sapiens, UniProt Q96EB6, N226A).
T2 construct: The following point mutants of full-length hSIRT1 were generated; His6 (C); made in house
T2 sequence (Q96EB6 1-747 N226A): T1 sequence (Q96EB6 1-747 E230Q) with N226A, Q230E
The following applies: for EC50: hSIRT1 N226A, activation dose-response, Ac-p53(W5) substrate.

For the next series, the target named is T3, full-length hSIRT1 V224A (Homo sapiens, UniProt Q96EB6, V224A).
T3 construct: The following point mutants of full-length hSIRT1 were generated; His6 (C); made in house
T3 sequence (Q96EB6 1-747 V224A): T1 sequence (Q96EB6 1-747 E230Q) with V224A, Q230E
The following applies: for EC50: hSIRT1 V224A, activation dose-response, Ac-p53(W5) substrate.

Turning to `O=C(Nc1ccccn1)N1c2nc(-c3cccc(C(F)(F)F)c3)ccc2N2CC[C@H]1C2` [Example 7], on full-length hSIRT1 E230Q, the “EC50 fold shift (mutant EC50/wild-type EC50)” value is 1.53, the “RVmax fold shift = (wild-type RVmax−1)/(mutant RVmax−1)” value (from here on “RVmax fold shift =”) was 3.93 and a half-maximal response (EC50) required 3360 nM. On full-length hSIRT1 N226A, the “EC50 fold shift (mutant EC50/wild-type EC50)” value was determined as 1.78; the “RVmax fold shift =” value turned out to be 1.32; the EC50 – broadly, the concentration that produces a half-maximal response – was 3920 nM. In addition, at full-length hSIRT1 V224A, the “EC50 fold shift (mutant EC50/wild-type EC50)” value is listed as 1.18, the “RVmax fold shift =” value came out at 0.72 and the EC50 is 2600 nM.

With `Cc1cnc2c(NC(=O)N3c4nc(-c5cccc(C(F)(F)F)c5)ccc4N4CC[C@H]3C4)cccc2n1` [Example 8], at full-length hSIRT1 E230Q, the “EC50 fold shift (mutant EC50/wild-type EC50)” value is reported as 1.21, the “RVmax fold shift =” value was determined as 3.07 and the EC50 turned out to be 580 nM. Further, at full-length hSIRT1 N226A, the “EC50 fold shift (mutant EC50/wild-type EC50)” value worked out at 2.15, the “RVmax fold shift =” value came to 1.34 and it took 1030 nM to reach a half-maximal effect (EC50). At full-length hSIRT1 V224A, the “EC50 fold shift (mutant EC50/wild-type EC50)” value is 1.87, the “RVmax fold shift =” value was 0.79 and the EC50 was 900 nM.
